Data taken from patent US20170152245A1 (National Taiwan University, priority 2015, published 2017).

Tests used:
[1] = tested on: human platelet suspension; assay: U46619-induced platelet aggregation in human platelet suspension; format: cell-based; conditions: for IC50: Homo sapiens; for shift of the concentration-response curve of U46619: nstpbp5185 2 and 3 μM with indomethacin, Ctkf6f2 1 μM; for U46619 needed to induce the full aggregation: platelets pretreated with 1 μM compound
[2] = tested on: human platelet suspension; assay: Collagen-induced platelet aggregation in human platelet suspension; format: cell-based; conditions: collagen 10 μg/ml; for IC50: Platelet, washed human platelets, read-out: IC50 collagen-induced platelet aggregation in human PS
Experimental: Human platelet suspension (PS) was prepared according to the method described previously. Briefly, blood sample, freshly obtained from healthy volunteers who had taken no medications during the preceding 2 weeks, was treated with acid citrate/dextrose (ACD) in a volume ratio of 9:1. After centrifugation at 120 g, 25° C. for 9 min, platelet-rich plasma was transferred into another plastic tube and incubated with heparin (6.4 U/ml) as well as prostaglandin E1 (1 μM). Platelets were spun down by centrifugation at 500 g, 25° C. for 8 min and subsequently washed two times with Tyrode solution (NaH2PO4 0.4 mM; NaCl 136.9 mM; KCl […]; NaHCO3 11.9 mM; CaCl2 2 mM; MgCl2 2.1 mM; glucose 11.1 mM; BSA 3.5 mg/ml; pH 7.35-7.4). The washed platelets were finally suspended in Tyrode's solution and the platelet count was adjusted to 3.75×10^8 platelets/ml. For platelet-rich plasma (PRP) preparation, whole blood was anticoagulated with 1/10 vol of sodium citrate (3.8%, w/v) and centrifuged at 150 g, 25° C. for 9 min.
Platelet aggregation was measured turbidimetrically with a Lumi-aggregometer (Payton Scientific) at 37° C. under stirring condition (900 rpm). Platelet suspensions were prewarmed to 37° C. for 2 min in a silicone-treated glass cuvette. Nstpbp5185 was added 3 min before the addition of platelet-aggregation inducers. The extent of platelet aggregation was determined by recording the increase of light transmission relative to that of control (maximal aggregation, as 100%) for 6 min after the addition of inducer. The final volume and platelet count for measuring platelet aggregation were 500 μl and 3×10^8/ml, respectively.

[3] = tested on: receptor tyrosine kinases; assay: Receptor tyrosine kinases safety profile; format: biochemical; parameters: dose or concentration left out as unconfirmed
Experimental: These kinases or enzymatic assays were performed by MDS according to the standardized methods

[4] = tested on: mesenteric venules of mice; assay: Fluorescein sodium-induced platelet thrombus formation in mesenteric venules of mice; format: in vivo; conditions: for average time to occlusion (TTO): 10 μg/g i.v., mice; for occlusion time: i.v., 5 min after administration
Experimental: A modification of the method was used. Male ICR mice (12-14 g) were anesthetized with sodium pentobarbital (50 mg/kg, i.p.). […] Five min later, various doses of nstpbp5185 (2 and 4 μg/g), aspirin (150 and 250 μg/g), or DMSO (control) were administered by i.v. through other lateral tail vein. The injected volume of the nstpbp5185, aspirin, or DMSO (control) was smaller than 10 μl. A segment of the small intestine with its mesentery attached was exteriorized through a midline incision on the abdominal wall and placed onto a transparent plastic plate for microscopic observation. Frequent rinsing of the mesentery with warm isotonic saline kept at 37° C. was performed to prevent the mesentery from drying out. Microvessels in the mesentery were observed under transillumination from a halogen lamp. Venules with diameters of 30-40 μm were selected to be irradiated to produce a microthrombus. In the epi-illumination system, light from a 100-W mercury lamp was filtered through a filter (B-2A, Nikon, Tokyo, Japan) with a dichromic mirror (DM 510, Nikon). The filtered light eliminated wavelengths below 520 nm irradiated a microvessel through an objective lens (20×). The area of irradiation was about 100 μm in diameter on the focal plane. Ten minutes after administration of the dye, the irradiation by filtered light and a timer were simultaneously started, and thrombus formation was observed on a TV-monitor. Occlusion time was recorded as the time interval for inducing thrombus formation leading to cessation of blood flow.
After giving 50 μg/g fluorescein sodium, the irradiation of mesenteric venules induced thrombus formation which is consist of activated platelets and fibrin clots. […] In the vehicle-treated group, the average TTO was approximately 143.71±4.99 sec (n=17). The group pre-treated with compound 5185 (10 μg/g), the average TTO value was 208.67±6.99 sec (n=12).

human platelets [5] = assay: Platelet [Ca2+]i mobilization by Fura 2-AM fluorescence; format: cell-based; conditions: for collagen-evoked increase of [Ca2+]i: collagen 10 μg/ml, Fura-2-loaded platelets
Experimental: After centrifugating platelet-rich plasma at 500 g, 25° C. for 8 min, isolated platelets were resuspended in Ca^2+-free Tyrode solution. The platelet suspensions were protected from light and incubated with Fura 2-AM (5 μM) at 37° C. for 30 min. Human platelets were then prepared as described previously. The washed platelet count was adjusted to 3-4.5×10^8 platelets/ml. Finally, the external Ca^2+ concentration of the platelet suspensions was adjusted to 1 mM. The rise in [Ca^2+]i was measured using a fluorescence spectrophotometer (CAF 110, Jasco, Japan) at excitation wavelengths of 340 and 380 nm, and an emission wavelength of 500 nm. [Ca^2+]i was calculated from the fluorescence, using 224 nM as the Ca^2+-Fura 2 dissociation constant.

human platelets [6] = assay: Flow cytometric analysis of P-selectin expression; format: cell-based; conditions: for U46619-induced P-selectin expression: U46619 1 μM; for collagen-induced P-selectin expression: collagen 10 μg/ml
Experimental: […] Then the sample was further incubated with FITC-labeled anti-CD62P in the dark at room temperature. Prior to analysis, the volume was adjusted to 1 mL/tube with Tyrode's solution. The suspensions were immediately assayed by fluorescence activated cell sorter (Becton-Dickinson, FACScan System, San Joe, Calif.) using excitation and emission wavelength of 488 and 525 nm, respectively. Data were collected from 10000 platelets per experimental group. The level of P-selectin expression was expressed as mean fluorescence intensity.

[7] = Platelet, U46619 1 μM, washed human platelets, read-out: IC50 U46619-induced aggregation

Compound | IC50 [1, 7] | inhibition at 1 µM ([1]; Platelet, human washed platelets, 1 μM compound, U46619 1 μM) | shift of the concentration-response curve of U46619 [1] | U46619 needed to induce the full aggregation [1] | IC50 [2] | effects on receptor tyrosine kinases [3] | average time to occlusion (TTO) [4] | U46619-induced calcium mobilization (human platelets [5]; U46619 1 μM, 1 μM-3 μM compound) | collagen-evoked increase of [Ca2+]i (human platelets [5]) | U46619-induced P-selectin expression (human platelets [6]) | collagen-induced P-selectin expression (human platelets [6]) | IC50 ([1]; Platelet, U46619-induced aggregation, platelet suspension, read-out: P.S(U46619) IC50) | inhibition of aggregation induced by U46619 ([1]; human washed platelets, 1 μM compound, U46619 1 μM) | % inhibition collagen ([2]; human platelet suspension, preliminary, compound concentration not given) | occlusion time within 70 min after administration ([4]; 4 μg g^−1 i.v.) | time until occlusion time returned to the control value ([4]; 4 μg g^−1 i.v.) | occlusion time ([4]; 4 μg/g) | occlusion time ([4]; first dose of 'respectively' (2 μg/g)) | thrombin-evoked increase of [Ca2+]i (human platelets [5]; thrombin 0.1 U/ml, even at 60 μM)
Cc1ccc(-c2nc3ccc(F)cc3n2Cc2cccc(F)c2)o1 [Ctkf6f2, 6-fluoro-1-(3-fluorobenzyl)-2-(5-methyl-2-furyl)benzimidazole] | 1170 ± 230 nM | 50% | right-shift | around 2 μM | 3400 ± 620 nM | little effects | 267.93 ± 12.64 s | markedly inhibited | concentration-dependently inhibited | decreased | decreased | – | – | – | – | – | – | – | –
Cc1ccc(-c2nc3ccccc3n2Cc2ccccc2)o1 [Example 6, 1-Benzyl-2-(5-methyl-2-furyl)benzimidazole] | ~2500 nM | – | right-shift | 0.5 µM | ~1300 nM | little effects | 208.67 ± 6.99 s | – | markedly inhibited | significantly reduced | concentration-dependently reduced to baseline | 2450 nM | could not effectively inhibit | 71.2 (n = 2) % | 157.5 ± 12.5 s | ≤ 90 min | 170.9 ± 28.0 s | 110.5 ± 18.0 s | no effect
